In article PMC3674108 (Journal of the American Chemical Society, 2013):
Entries after “also recorded” stand apart in the source; their conditions may differ. Where two headings read alike, the source gives them in different places. Marks after values point to notes of the source that are not given here.

Legend:
[1] = biological target: Escherichia coli TSase (ecTSase) (Escherichia coli, UniProt P0A884); assay: Steady-state initial velocities of ecTSase; assay type: biochemical; conditions: for Hill coefficient x (inhibitory binding mode): Eq 3
Chain of Escherichia coli TSase (ecTSase) (P0A884 whole entry): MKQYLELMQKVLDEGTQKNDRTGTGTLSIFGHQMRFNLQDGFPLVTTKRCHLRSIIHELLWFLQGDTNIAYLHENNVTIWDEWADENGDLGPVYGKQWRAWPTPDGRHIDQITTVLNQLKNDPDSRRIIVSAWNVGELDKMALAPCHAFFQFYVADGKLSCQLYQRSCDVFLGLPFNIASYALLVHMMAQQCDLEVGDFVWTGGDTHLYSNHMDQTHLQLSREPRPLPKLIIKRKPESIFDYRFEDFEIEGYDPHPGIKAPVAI

[2] = biological target: T1, ecTSase (Escherichia coli, UniProt P0A884); assay: Noncompetitive KIE experiments; assay type: biochemical; conditions: w/ 50 mM MgCl2, 25 °C; for KMCH2H4folate / kcat: 100 μM dUMP, pH 7.5
T1 sequence (P0A884 whole entry): as above

[3] = biological target: T2, apo-ecTSase (Escherichia coli, UniProt P0A884); conditions: read-out: Kd of Mg^2+ for apo-ecTSase; 25 °C, pH 7.5, one-site binding fit
T2 sequence (P0A884 whole entry): as above

[4] = biological target: T1, ecTSase
[5] = biological target: ecTSase-dUMP complex; assay type: binding, Escherichia coli; conditions: read-out: KdCH4H4fol; w/o Mg^2+, 25 °C, calculated using Eq 5
[6] = biological target: ecTSase-dUMP-Mg^2+ complex; assay type: binding, Escherichia coli; conditions: read-out: KdCH4H4fol; w/ 50 mM MgCl2, 25 °C, calculated using Eq 5
[7] = biological target: ecTSase-Mg^2+ complex (Escherichia coli, UniProt P0A884); assay: Fluorescence assay, dUMP titration into ecTSase pre-incubated with MgCl2; assay type: binding
Chain of ecTSase-Mg^2+ complex (P0A884 whole entry, one chain of several): as the sequence (P0A884 whole entry) above

[8] = biological target: T2, apo-ecTSase; assay: biochemical

[Mg+2] [Mg^2+]
increase of kcat (hydride transfer rate) by Mg^2+ ([1]; 50 mM MgCl2, 5-35 °C): ca. 7 fold
increase of the Michaelis constant of dUMP by Mg^2+ ([1]; 50 mM MgCl2, 25 °C): ca. 5 fold
reduction of activation free energy ΔG^‡ of kcat by Mg^2+ ([1]; 50 mM MgCl2, 25 °C): ca. 1 kcal/mol
reduction of entropy of activation TΔS^‡ of kcat by Mg^2+ ([1]; 50 mM MgCl2, 25 °C): ca. 1 kcal/mol
-TΔS^‡ at 25 °C from fitting kcat to the Eyring equation ([1]; w/ 50 mM MgCl2): 12.8 ± 0.2 kcal/mol
ΔH^‡ from fitting kcat to the Eyring equation ([1]; w/ 50 mM MgCl2, 5-35 °C): 3.4 ± 0.2 kcal/mol
ΔG^‡ from fitting kcat to the Eyring equation ([1]; w/ 50 mM MgCl2, 25 °C): 16.2 ± 0.4 kcal/mol
observed H/D KIE on kcat (^Dkcat) [2]: 3.8 ± 0.3
Kd [3]: 27000 ± 7000 µM
AH/AT (isotope effect on the Arrhenius prefactors of the hydride transfer) ([4]; w/ 50 mM MgCl2): 6.6 ± 1.3
intrinsic H/D KIE (^Dk) on the hydride transfer ([4]; w/ 50 mM MgCl2, 25 °C, competitive KIE experiment): 3.9 ± 0.2^a

[2H][C@]12CNc3nc(N)[nH]c(=O)c3N1CN(c1ccc(C(=O)N[C@@H](CCC(=O)O)C(=O)O)cc1)C2 [6R-D-CH2H4fol]
KMCH2H4folate [2]: 19 ± 5 µM
kcat [2]: 2.3 ± 0.2 s⁻¹

Nc1nc2c(c(=O)[nH]1)N1CN(c3ccc(C(=O)N[C@@H](CCC(=O)O)C(=O)O)cc3)CC1CN2 (stereo partly drawn) [CH2H4fol, N^5,N^10-methylene-5,6,7,8-tetrahydrofolate]
Hill coefficient x (inhibitory binding mode) ([1]; absence of Mg^2+, best-fit integer): 2
Hill coefficient n (productive binding mode) ([1]; both absence and presence of Mg^2+, best-fit integer, Eq 2): 1
Hill coefficient x (inhibitory binding mode) ([1]; presence of Mg^2+ (50 mM MgCl2), best-fit integer): 1
KMCH4H4fol ([1]; w/ 50 mM MgCl2, 25 °C, 100 μM dUMP): 15 ± 1 µM
KMCH4H4fol ([1]; w/o Mg^2+, 25 °C): 17 ± 2 µM
Kd [5]: 17 ± 2 µM
Kd [6]: 8 ± 1 µM
KMCH2H4folate [2]: 15 ± 1 µM
kcat [2]: 8.7 ± 0.2 s⁻¹

[Ca+2].[Cl-].[Cl-] [CaCl2]
effect on initial velocities (ionic strength control) ([1]; 50 mM CaCl2, 25 °C): no difference; also recorded: no effects on the initial velocities

O=c1ccn([C@H]2C[C@H](O)[C@@H](COP(=O)(O)O)O2)c(=O)[nH]1 [dUMP, 2’-deoxyuridine-5’-monophosphate]
KMdUMP ([1]; w/ 50 mM MgCl2, 25 °C, 150 μM CH2H4fol): 2.4 ± 0.2 µM
KMdUMP ([1]; w/o Mg^2+, 25 °C): 0.5 ± 0.1 µM
Kd [7]: 14 ± 2 µM
Kd [8]: 8.5 ± 0.9 µM
